Source: US9604989B2, “Imidazopyridazines as Akt kinase inhibitors” (Bayer Intellectual Property GmbH, priority 2011, dated 2017)
Where a name gives a salt, the structure may show the parent alone.

Assays:
phospho-AKT at S473 = experiment: Cellular p-AKT1/2/3-S473 assay in KPL-4 cells; format: cell-based; details: Homo sapiens, KPL4; KPL-4 breast tumour cell line, compound treatment 2 hours; read-out: pAKT-S473 median IC50
Description: The molecular mechanism of action was investigated in a set of experiments to assess the inhibition of the PI3K-AKT-mTOR pathway in responsive cell lines such as KPL-4 breast tumour cell line (PIK3CA^H1047R, HER2^O/E and hormone independent). The phospho-substrates of PI3K-AKT-mTOR axis were used as the read-outs to reflect pathway inhibition. Cells were seeded at 60-80% confluency per well in 96-well cell culture plates. After overnight incubation at 37° C. 5% CO2, cells were treated with compounds and vehicle at 37° C. for 2 hours. […] All measurements where at least done in duplicates and confirmed by independent repetition.
Alternatively pAKT-S473 was measured using the “Akt Duplex” of the MULTI-SPOT® Assay System (Fa. Meso Scale Discovery, Cat#N41100B-1) following manufacturers instructions. Each assay used 20 μg of protein extract and measured total AKT and p-AKT content simultaneously in one well. All measurements where at least done in duplicates and confirmed by independent repetition. Values for P-AKT are expressed as percentage of P-AKT level compared to total-AKT content of the extracts.

[1] = tested on: MCF-7 breast tumour cell line; experiment: Tumor cell proliferation assay (CellTiter-Glo), MCF-7; format: cell-based; details: Homo sapiens, MCF7, 72 h drug exposure, read-out: MCF-7 median IC50
[2] = tested on: KPL-4 breast cancer cell line; experiment: Tumor cell proliferation assay (CellTiter-Glo), KPL-4; format: cell-based; details: Homo sapiens, KPL4, 72 h drug exposure, read-out: KLP-4 median IC50
p-4E-BP1 at T70 = experiment: Cellular p-4E-BP1-T70 assay in KPL-4 cells; format: cell-based; details: Homo sapiens, KPL4; KPL-4 breast tumour cell line, compound treatment 2 hours; read-out: P4EBP1-T70 median IC50
[3] = biological target: His-tagged human recombinant kinase full-length Akt1 (Homo sapiens (Human), UniProt P31749); experiment: Akt1 kinase assay (Akt1 TR-FRET assay); format: biochemical; details: 10 μM ATP, 60 min at 22° C., read-out: Akt1 median IC50
His-tagged human recombinant kinase full-length Akt1, sequence (P31749 whole entry): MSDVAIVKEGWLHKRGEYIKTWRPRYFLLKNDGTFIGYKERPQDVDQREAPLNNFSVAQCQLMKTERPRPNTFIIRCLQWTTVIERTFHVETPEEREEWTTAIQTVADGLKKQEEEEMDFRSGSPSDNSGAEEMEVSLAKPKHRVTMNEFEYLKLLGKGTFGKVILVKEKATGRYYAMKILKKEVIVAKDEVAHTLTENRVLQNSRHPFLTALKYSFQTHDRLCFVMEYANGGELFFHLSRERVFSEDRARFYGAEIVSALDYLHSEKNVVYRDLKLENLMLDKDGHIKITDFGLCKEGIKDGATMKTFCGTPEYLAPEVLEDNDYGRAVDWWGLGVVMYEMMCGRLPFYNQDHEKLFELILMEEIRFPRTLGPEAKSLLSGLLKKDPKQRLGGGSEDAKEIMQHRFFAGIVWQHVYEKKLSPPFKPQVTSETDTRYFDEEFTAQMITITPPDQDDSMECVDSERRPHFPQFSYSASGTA
Excerpt: Biological Assay 1.0: Akt1 Kinase Assay
Akt1 inhibitory activity of compounds of the present invention was quantified employing the Akt1 TR-FRET assay as described in the following paragraphs.
His-tagged human recombinant kinase full-length Akt1 expressed in insect cells was purchased form Invitrogen (part number PV 3599). As substrate for the kinase reaction the biotinylated peptide biotin-Ahx-[sequence] (C-terminus in amide form) was used which can be purchased e.g. from the company Biosynthan GmbH (Berlin-Buch, Germany).
For the assay 50 nl of a 100 fold concentrated solution of the test compound in DMSO was pipetted into a black low volume 384 well microtiter plate (Greiner Bio-One, Frickenhausen, Germany), 2 μl of a solution of Akt1 in assay buffer [50 mM TRIS/HCl pH 7.5, 5 mM MgCl2, 1 mM dithiothreitol, 0.02% (v/v) Triton X-100 (Sigma)] were added and the mixture was incubated for 15 min at 22° C. to allow pre-binding of the test compounds to the enzyme before the start of the kinase reaction. Then the kinase reaction was started by the addition of 3 μl of a solution of adenosine-tri-phosphate (ATP, 16.7 μM=>final conc. in the 5 μl assay volume is 10 μM) and substrate (1.67 μM=>final conc. in the 5 μl assay volume is 1 μM) in assay buffer and the resulting mixture was incubated for a reaction time of 60 min at 22° C. The concentration of Akt1 in the assay was adjusted depending of the activity of the enzyme lot and was chosen appropriate to have the assay in the linear range, typical enzyme concentrations were in the range of about 0.05 ng/μl (final conc. in the 5 μl assay volume). The reaction was stopped by the addition of 5 μl of a solution of HTRF detection reagents (200 nM streptavidine-XL665 [Cisbio] and 1.5 nM anti-phosho-Serine antibody [Millipore, cat. #35-001] and 0.75 nM LANCE Eu-W 1024 labeled anti-mouse IgG antibody [Perkin Elmer]) in an aqueous EDTA-solution (100 mM EDTA, 0.1% (w/v) bovine serum albumin in 50 mM HEPES/NaOH pH 7.5). The resulting mixture was incubated 1 h at 22° C. to allow the binding of the biotinylated phosphorylated peptide to the streptavidine-XL665 and the antibodies. Subsequently the amount of phosphorylated substrate was evaluated by measurement of the resonance energy transfer from the anti-mouse-IgG-Eu-Chelate to the streptavidine-XL665. Therefore, the fluorescence emissions at 620 nm and 665 nm after excitation at 350 nm was measured in a HTRF reader, e.g. a Rubystar (BMG Labtechnologies, Offenburg, Germany) or a Viewlux (Perkin-Elmer). The ratio of the emissions at 665 nm and at 622 nm was taken as the measure for the amount of phosphorylated substrate.

[4] = biological target: His-tagged human recombinant kinase full-length Akt2 (Homo sapiens (Human), UniProt P31751); experiment: Akt2 kinase assay (Akt2 TR-FRET assay); format: biochemical; details: 10 μM ATP, 60 min at 22° C., read-out: Akt2 median IC50
His-tagged human recombinant kinase full-length Akt2, sequence (P31751 whole entry): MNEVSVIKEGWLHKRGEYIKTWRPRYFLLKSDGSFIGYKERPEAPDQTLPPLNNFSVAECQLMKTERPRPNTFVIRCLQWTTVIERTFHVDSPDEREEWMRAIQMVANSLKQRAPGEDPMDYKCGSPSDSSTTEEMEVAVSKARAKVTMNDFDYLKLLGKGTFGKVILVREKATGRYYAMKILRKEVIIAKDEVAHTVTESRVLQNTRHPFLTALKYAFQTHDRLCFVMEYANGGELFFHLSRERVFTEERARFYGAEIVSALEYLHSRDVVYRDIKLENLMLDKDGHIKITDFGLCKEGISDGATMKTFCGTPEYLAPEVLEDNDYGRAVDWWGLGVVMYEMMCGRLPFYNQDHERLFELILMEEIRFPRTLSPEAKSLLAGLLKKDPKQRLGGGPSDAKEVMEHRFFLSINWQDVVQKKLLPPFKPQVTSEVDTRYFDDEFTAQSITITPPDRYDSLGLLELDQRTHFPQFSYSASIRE

Structure (SMILES) | IC50 (phospho-AKT at S473) [nM] | IC50 [1] [nM] | IC50 [2] [nM] | IC50 (p-4E-BP1 at T70) [nM] | IC50 [3] [nM] | IC50 [4] [nM]
NC1(c2ccc(-c3nc4ccc(C(F)(F)F)nn4c3-c3ccccc3)cc2)CCC1 [Example 3, 1-{4-[3-Phenyl-6-(trifluoromethyl)imidazo[1,2-b]pyridazin-2-yl]phenyl}-cyclobutanamine] | 360 | 1800 | 1700 | 4500 | – | –
COC(=O)c1cc(OC)c2nc(-c3ccc(C4(N)CCC4)cc3)c(-c3ccccc3)n2n1 [Example 12, Methyl 2-[4-(1-aminocyclobutyl)phenyl]-8-methoxy-3-phenylimidazo[1,2-b]pyridazine-6-carboxylate] | 52 | 1800 | 2000 | 260 | 21 | –
CCc1cc(OC)c2nc(-c3ccc(C4(N)CCC4)cc3)c(-c3ccccc3)n2n1 [Example 13, 1-[4-(6-Ethyl-8-methoxy-3-phenylimidazo[1,2-b]pyridazin-2-yl)phenyl]cyclobutanamine] | – | 1100 | 1500 | 660 | – | 42
COc1cc(-c2cn[nH]c2)c2nc(-c3ccc(C4(N)CCC4)cc3)c(-c3ccccc3)n2n1 [Example 15, 1-{4-[6-Methoxy-3-phenyl-8-(1H-pyrazol-4-yl)imidazo[1,2-b]pyridazin-2-yl]phenyl} cyclobutanamine HCl salt] | 590 | 1800 | 1800 | 1700 | 4.4 | –
CCOc1cc(C(=O)NC)nn2c(-c3ccccc3)c(-c3ccc(C4(N)CCC4)cc3)nc12 [Example 22, 2-[4-(1-Aminocyclobutyl)phenyl]-8-ethoxy-N-methyl-3-phenylimidazo[1,2-b]pyridazine-6-carboxamide] | 0.3 | 240 | 190 | 23 | 8 | –
NC1(c2ccc(-c3nc4c(-c5ncc[nH]5)cc(Cl)nn4c3-c3ccccc3)cc2)CCC1 [Example 24, 1-{4-[6-Chloro-8-(1H-imidazol-2-yl)-3-phenyl-imidazo[1,2-b]pyridazin-2-yl]phenyl} cyclobutanamine] | 200 | 1800 | 1700 | 500 | 35 | –
CNC(=O)c1cc(OC)c2nc(-c3ccc(C4(N)CCC4)cc3)c(-c3ccccc3)n2n1 [Example 26, 2-[4-(1-Aminocyclobutyl)phenyl]-8-methoxy-N-methyl-3-phenylimidazo[1,2-b]pyridazine-6-carboxamide] | 0.9 | 1800 | 1800 | 90 | – | 10
COCCOc1cc(C(N)=O)nn2c(-c3ccccc3)c(-c3ccc(C4(N)CCC4)cc3)nc12 [Example 28, 2-[4-(1-Aminocyclobutyl)phenyl]-8-(2-methoxy-ethoxy)-3-phenylimidazo[1,2-b]pyridazine-6-carboxamide] | 1 | 1800 | 1900 | 6.2 | – | –
COC(=O)c1ccnn2c(-c3ccccc3)c(-c3ccc(C4(N)CCC4)cc3)nc12 [Example 31, Methyl 2-[4-(1-aminocyclobutyl)phenyl]-3-phenylimidazo[1,2-b]pyridazine-8-carboxylate] | 1800 | 1400 | 8400 | 4300 | – | 140
NC1(c2ccc(-c3nc4c(O)ccnn4c3-c3ccccc3)cc2)CCC1 [Example 32, 2-[4-(1-Aminocyclobutyl)phenyl]-3-phenylimidazo[1,2-b]pyridazin-8-ol] | 160 | – | – | 2200 | – | –
NC1(c2ccc(-c3nc4ccc(-c5ccc(F)cc5)nn4c3-c3ccccc3)cc2)CCC1 [Example 33, 1-{4-[6-(4-Fluorophenyl)-3-phenylimidazo[1,2-b]pyridazin-2-yl]phenyl}cyclobutanamine] | 2900 | – | – | – | 690 | –
NC(=O)c1cc(C(N)=O)c2nc(-c3ccc(C4(N)CCC4)cc3)c(-c3ccccc3)n2n1 [Example 34, 2-[4-(1-Aminocyclobutyl)phenyl]-3-phenylimidazo[1,2-b]pyridazine-6,8-dicarboxamide] | 3.1 | 330 | 1100 | 150 | – | 14
Nc1ccc2nc(-c3ccc(C4(N)CCC4)cc3)c(-c3ccccc3)n2n1 [Example 35, 2-[4-(1-Aminocyclobutyl)phenyl]-3-phenylimidazo[1,2-b]pyridazin-6-amine] | 190 | 3000 | 6100 | 1700 | – | 1200
CSc1ccc2nc(-c3ccc(C4(N)CCC4)cc3)c(-c3ccccc3)n2n1 [Example 36, 1-{4-[6-(Methylsulfanyl)-3-phenylimidazo[1,2-b]pyridazin-2-yl]phenyl}cyclobutanamine] | 26 | 1700 | 1800 | 1600 | 17 | –
CS(=O)(=O)c1ccc2nc(-c3ccc(C4(N)CCC4)cc3)c(-c3ccccc3)n2n1 [Example 38] | 20 | 510 | 740 | 530 | 370 | –
NC1(c2ccc(-c3nc4ccc(NC(=O)C(F)(F)F)nn4c3-c3ccccc3)cc2)CCC1 [Example 40, N-{2-[4-(1-Aminocyclobutyl)phenyl]-3-phenylimidazo[1,2-b]pyridazin-6-yl}-2,2,2-trifluoroacetamide] | 2000 | 8400 | > 10000 | 6100 | – | –
CC(=O)c1ccc2nc(-c3ccc(C4(N)CCC4)cc3)c(-c3ccccc3)n2n1 [Example 43, 1-{2-[4-(1-Aminocyclobutyl)phenyl]-3-phenylimidazo[1,2-b]pyridazin-6-yl}ethanone] | 96 | 6700 | 6200 | 1600 | 36 | –
NC1(c2ccc(-c3nc4c(-c5ccc(F)cc5)ccnn4c3-c3ccccc3)cc2)CCC1 [Example 44, 1-{4-[8-(4-Fluorophenyl)-3-phenylimidazo[1,2-b]pyridazin-2-yl]phenyl}cyclobutanamine] | 800 | – | 2000 | 380 | – | 310
NC1(c2ccc(-c3nc4c(C5CC5)cc(Cl)nn4c3-c3ccccc3)cc2)CCC1 [Example 46, 1-[4-(6-Chloro-8-cyclopropyl-3-phenylimidazo [1,2-b]pyridazin-2-yl)phenyl]cyclobutanamine] | 430 | 1500 | 1900 | 300 | – | 85
CCCc1ccnn2c(-c3ccccc3)c(-c3ccc(C4(N)CCC4)cc3)nc12 [Example 47, 1-[4-(3-Phenyl-8-propylimidazo[1,2-b]pyridazin-2-yl)phenyl]cyclobutanamine] | 140 | 1100 | 1700 | 96 | 220 | –
Nc1ccnn2c(-c3ccccc3)c(-c3ccc(C4(N)CCC4)cc3)nc12 [Example 48, 2-[4-(1-Aminocyclobutyl)phenyl]-3-phenylimidazo[1,2-b]pyridazin-8-amine] | 42 | 1300 | 1100 | 29 | – | 610
CCOc1nn2c(-c3ccccc3)c(-c3ccc(C4(N)CCC4)cc3)nc2c(C)c1C [Example 55, 1-[4-(6-Ethoxy-7,8-dimethyl-3-phenylimidazo[1,2-b]pyridazin-2-yl)phenyl]-cyclobutanamine] | 680 | 1900 | 2000 | 1800 | – | –
NC(=O)c1ccnn2c(-c3ccccc3)c(-c3ccc(C4(N)CCC4)cc3)nc12 [Example 59] | 11 | – | – | 100 | – | –
NC(=O)c1cc(-c2cc[nH]n2)c2nc(-c3ccc(C4(N)CCC4)cc3)c(-c3ccccc3)n2n1 [Example 60, 2-[4-(1-Aminocyclobutyl)phenyl]-3-phenyl-8-(1H-pyrazol-3-yl)imidazo[1,2-b]pyridazine-6-carboxamide] | 1 | 73 | 1500 | 8100 | 7.2 | –
CNC(=O)c1cc(OCC2CC2)c2nc(-c3ccc(C4(N)CCC4)cc3)c(-c3ccccc3)n2n1 [Example 64, 2-[4-(1-Aminocyclobutyl)phenyl]-8-(cyclopropylmethoxy)-N-methyl-3-phenylimidazo[1,2-b]pyridazine-6-carboxamide] | 0.9 | 150 | 360 | 84 | – | 12
CCNC(=O)c1ccc2nc(-c3ccc(C4(N)CCC4)cc3)c(-c3ccccc3)n2n1 [Example 66, 2-[4-(1-Aminocyclobutyl)phenyl]-N-ethyl-3-phenylimidazo[1,2-b]pyridazine-6-carboxamide] | 17 | 980 | 2500 | – | – | –
CN(C)C(=O)c1ccc2nc(-c3ccc(C4(N)CCC4)cc3)c(-c3ccccc3)n2n1 [Example 69, 2-[4-(1-Aminocyclobutyl)phenyl]-N,N-dimethyl-3-phenylimidazo[1,2-b]pyridazine-6-carboxamide] | 250 | 1500 | 10000 | 4400 | 310 | –
COc1cc(-c2ccnn2C)c2nc(-c3ccc(C4(N)CCC4)cc3)c(-c3ccccc3)n2n1 [Example 74, 1-{4-[6-Methoxy-8-(1-methyl-1H-pyrazol-5-yl)-3-phenylimidazo[1,2-b]pyridazin-2-yl]phenyl}cyclobutanamine] | 450 | 2000 | 2100 | – | 96 | –
